Measured values: patent publication US6077680A (The University of Florida, dated 2000)

System: rat brain membrane K channels (primarily Kv1.2)
Format: binding

Row | Compound | Difference of Free Energy of Binding | IC50 Ratio | increase in relative free energy of binding | binding affinity for rat brain K channels relative to wild-type ShK toxin, in words | Equipotent Molar Ratio (Analog IC50 /ShK IC50) | Free Energy Differ. of Binding ΔF | ΔF
1 | RSCIDTIPKSRCTAPQCKHSMKYRLSFCRATCGTC [K30A] | 0.98 | 5.3 | approximately 1 kcal/mol |  |  |  | 
2 | RSCIDTIPKSRCTAPQCKHSMKYRLSFCRKACGTC [T31A] | -0.30 | 0.6 |  | increased affinities |  |  | 
3 | CC[C@H](C)[C@@H]1NC(=O)[C@@H](NC(=O)[C@H](CO)NC(=O)[C@@H](N)CCCNC(=N)N)CSSC[C@@H](C(=O)O)NC(=O)[C@H]([C@@H](C)O)NC(=O)CNC(=O)[C@@H]2CSSC[C@@H]3NC(=O)[C@H](CCC(N)=O)NC(=O)[C@H](Cc4ccccc4)NC(=O)[C@H](C)NC(=O)[C@H]([C@@H](C)O)NC(=O)[C@H](CSSC[C@H](NC(=O)[C@H](Cc4ccccc4)NC(=O)[C@H](CO)NC(=O)[C@H](C)NC(=O)[C@H](CCCNC(=N)N)NC(=O)[C@H](Cc4ccc(O)cc4)NC(=O)[C@H](CCCCN)NC(=O)[C@H](CCSC)NC(=O)[C@H](CO)NC(=O)[C@H](Cc4c[nH]cn4)NC(=O)[C@H](CCCCN)NC3=O)C(=O)N[C@@H](CCCNC(=N)N)C(=O)N[C@@H](CCCCN)C(=O)N[C@@H]([C@@H](C)O)C(=O)N2)NC(=O)[C@H](CCCNC(=N)N)NC(=O)[C@H](CO)NC(=O)[C@H](CCCCN)NC(=O)[C@@H]2CCCN2C(=O)[C@H]([C@@H](C)CC)NC(=O)[C@H]([C@@H](C)O)NC(=O)[C@H](CC(=O)O)NC1=O [L25A] | 0.20 | 1.4 |  |  |  |  | 
4 | RSCADTIPKSRCTAAQCKHSMKYRLSFCRKRCGTC [A4 + A15] |  | 0.5 |  | more potent than the wild-type toxin | 0.5 | -0.41 | -0.41
5 | CC[C@H](C)[C@@H]1NC(=O)[C@@H](NC(=O)[C@H](CO)NC(=O)[C@@H](N)CCCNC(=N)N)CSSC[C@@H](C(=O)O)NC(=O)[C@H]([C@@H](C)O)NC(=O)CNC(=O)[C@@H]2CSSC[C@@H]3NC(=O)[C@H](CCC(N)=O)NC(=O)[C@H](Cc4ccccc4)NC(=O)[C@H](C)NC(=O)[C@H]([C@@H](C)O)NC(=O)[C@H](CSSC[C@H](NC(=O)[C@H](Cc4ccccc4)NC(=O)[C@H](CO)NC(=O)[C@H](CC(C)C)NC(=O)[C@H](CCCNC(=N)N)NC(=O)[C@H](Cc4ccc(O)cc4)NC(=O)[C@H](CCCCN)NC(=O)[C@H](CCSC)NC(=O)[C@H](CO)NC(=O)[C@H](CCCCN)NC(=O)[C@H](CCCCN)NC3=O)C(=O)N[C@@H](CCCNC(=N)N)C(=O)N[C@@H](CCCCN)C(=O)N[C@@H]([C@@H](C)O)C(=O)N2)NC(=O)[C@H](CCCNC(=N)N)NC(=O)[C@H](CO)NC(=O)[C@H](CCCCN)NC(=O)[C@@H]2CCCN2C(=O)[C@H]([C@@H](C)CC)NC(=O)[C@H]([C@@H](C)O)NC(=O)[C@H](CC(=O)O)NC1=O [H19K] |  | 2.6 |  | slightly reduced IC50 ratio | 2.6 | 0.56 | 0.56
